Data from patent US7943632B2, “High potency dopaminergic treatment of neurological impairment associated with brain injury” (NeuroHealing Pharmaceuticals, Inc., priority 2003, dated 2011).

How the values were obtained:
[1] = system: Patient 01, traumatic brain injury (TBI); assay: Prior drug treatment in clinical history of Patient 01; format: in vivo, human; settings: 15 mg/day for 12 days, before apomorphine study
[2] = cited from earlier work
[3] = system: D2-like dopamine receptors; settings: cited from earlier work
[4] = system: patients of post-traumatic brain injury vegetative state (VS) and minimally conscious state (MCS); assay: Apomorphine open label study, Extended Glasgow Outcome Scale (GOS-E); format: in vivo, human
[5] = system: patients of post-traumatic brain injury vegetative state (VS) and minimally conscious state (MCS); settings: in vivo
[6] = system: patients of post-traumatic brain injury vegetative state (VS) and minimally conscious state (MCS); assay: Apomorphine open label study, safety observations; settings: Patient 02; approximately 4 months from the accident, dosing interrupted Day 47
[7] = system: patients of post-traumatic brain injury vegetative state (VS) and minimally conscious state (MCS); assay: Apomorphine open label study, Coma/Near Coma (CNC) Scale; format: in vivo, human
[8] = system: patients of post-traumatic brain injury vegetative state (VS) and minimally conscious state (MCS); assay: Apomorphine open label study, efficacy observations; format: in vivo, human
Method: The patients received the maximum tolerated dose, 12 to 16 hours per day, for up to 84 days (or shorter or longer as indicated). If the patient developed an adverse event, the dose was reduced or eliminated, according to the opinion of the attending physician. To prevent side effects from dopaminergic stimulation (such as nausea), domperidone was administered starting 24-72 hours (h) prior to initiation of the drug therapy.

[9] = system: patients of post-traumatic brain injury vegetative state (VS) and minimally conscious state (MCS); assay: Apomorphine open label study, Disability Rating Scale; format: in vivo, human
[10] = cited from earlier work; remark: listed apart in the source
[11] = Patient 01, Day 180, study termination
[12] = Patient 01, Day 7 of s.c. apomorphine
[13] = Patient 02, Day 7 of s.c. apomorphine
[14] = Patient 03, Day 7 of s.c. apomorphine
[15] = Patient 03, Day 180, treatment discontinued Day 84

COC(=O)C(c1ccccc1)C1CCCCN1 (stereo not drawn) [methylphenidate]
Response to treatment [1]: no response to treatment

CN1CCc2cccc3c2[C@H]1Cc1ccc(O)c(O)c1-3 [apomorphine, (R)-5,6,6a,7-tetrahydro-6-methyl-4H-dibenzo[de,g]quinolin-10,11-diol]
Incidence of psychological effects ([2]; compared with other dopaminergic agents): lower incidence of psychological effects
Injection site reaction ([2]; subcutaneous administration at a concentration of 10 mg/ml): nodule formation (panniculitis) may occur
Affinity for D2-like dopamine receptors [3]: particularly high affinity
GOS-E ([4]; Patient 01, Day 7): 3
GOS-E ([4]; Patient 01, Day 14): 3
GOS-E ([4]; Patient 01, Day 84): 3
GOS-E [4, 11]: 3
GOS-E ([4]; Patient 03, Day 84): 3
GOS-E ([4]; Patient 03, baseline): 2
Adverse event [5]: seizure
Adverse events [5]: agitation and fever
Dyskinesias and hallucinations after dose reduction [5]: disappeared
ECG and clinical labs [5]: no abnormal values
Tolerability of dose escalation ([5]; sc): well tolerated
Patient outcome [6]: died
CNC ([7]; Patient 01, Day 0 (baseline)): 20
CNC [7, 12]: 2
CNC ([7]; Patient 01, Day 14): 0
CNC ([7]; Patient 01, Day 21): 0
CNC ([7]; Patient 01, Day 28): 0
CNC ([7]; Patient 01, Day 42): 0
CNC ([7]; Patient 01, Day 56): 0
CNC ([7]; Patient 01, Day 70): 0
CNC ([7]; Patient 01, Day 84): 0
CNC [7, 11]: 0
CNC ([7]; Patient 02, Day 0 (baseline)): 36
CNC ([7]; Patient 02, Day 0 (baseline), listed as Apomorphine): 37
CNC [7, 13]: 33
CNC ([7]; Patient 02, Day 14): 24
CNC ([7]; Patient 02, Day 21): 24
CNC ([7]; Patient 02, Day 28): 24
CNC ([7]; Patient 02, Day 42): 26
CNC ([7]; Patient 03, Day 0 (baseline)): 33
CNC [7, 14]: 22
CNC ([7]; Patient 03, Day 14): 18
CNC ([7]; Patient 03, Day 21): 12
CNC ([7]; Patient 03, Day 28): 12
CNC ([7]; Patient 03, Day 42): 16
CNC ([7]; Patient 03, Day 56): 16
CNC ([7]; Patient 03, Day 70): 12
CNC ([7]; Patient 03, Day 84): 8
CNC [7, 15]: 0
Efficacy observation ([8]; Patient 01, Day 1, hours after initial dosing, 2 mg/h): moved right thumb to command
Efficacy observation ([8]; Patient 01, Day 2, 4 mg/h): moved limbs on command and answered yes/no questions
Efficacy observation ([8]; Patient 01, Day 3, 6 mg/h): Spoke by phone with sibling and named four friends in their room
Efficacy observation ([8]; Patient 01, Day 4, 8 mg/h): named objects and associated them with their function
Efficacy observation ([8]; Patient 01, Day 5, 8 mg/h): oriented to physician's last name and name of the institution
Effect of pump remaining off for two hours ([8]; Patient 01, Day 18): decrease in their awareness status
Time to regain “on” status after reconnection of the pump ([8]; Patient 01, Day 18): ≤ 15 min
Effect of attempt to discontinue the treatment ([8]; Patient 01, Day 84): regressed to an “off” state
Day of trial on which patient started to follow simple commands ([8]; Patient 02): 9
Efficacy observation ([8]; Patient 02, first two weeks of drug administration, maintained until the bleeding event): improvement in the patient's consciousness state
Efficacy observation ([8]; Patient 03, Day 2): started to vocalize words
Efficacy observation ([8]; Patient 03, Day 62): started to clearly respond to commands, recognize family members, respond to their name and respond to their age
Effect of first attempt to discontinue drug ([8]; Patient 03, Day 84): maintained their motor and cognitive improvements
Overall efficacy on altered consciousness state ([8]; Patients 01, 02 and 03 after traumatic brain injury): effective at improving the altered consciousness state
DRS ([9]; Patient 01, Day 0 (baseline)): 21
DRS [9, 12]: 13
DRS ([9]; Patient 01, Day 14): 13
DRS ([9]; Patient 01, Day 21): 12.5
DRS ([9]; Patient 01, Day 28): 12.5
DRS ([9]; Patient 01, Day 42): 12
DRS ([9]; Patient 01, Day 56): 10.5
DRS ([9]; Patient 01, Day 70): 10.5
DRS ([9]; Patient 01, Day 84): 10
DRS [9, 11]: 15
DRS ([9]; Patient 02, Day 0 (baseline)): 26
DRS [9, 13]: 24
DRS ([9]; Patient 02, Day 14): 19
DRS ([9]; Patient 02, Day 21): 22
DRS ([9]; Patient 02, Day 28): 22
DRS ([9]; Patient 03, Day 0 (baseline)): 23
DRS [9, 14]: 22
DRS ([9]; Patient 03, Day 14): 22
DRS ([9]; Patient 03, Day 21): 22
DRS ([9]; Patient 03, Day 28): 22
DRS ([9]; Patient 03, Day 42): 22
DRS ([9]; Patient 03, Day 56): 22
DRS ([9]; Patient 03, Day 70): 22
DRS ([9]; Patient 03, Day 84): 21
DRS [9, 15]: 12
Absorption and clearance ([10]; from subcutaneous tissues): rapidly and completely absorbed from subcutaneous tissues and is rapidly cleared
Absorption ([10]; parenterally administered): rapidly and completely absorbed
